US20210347794A1, “Phosphate Derivatives of Indole Compounds and Their Use” (ARIAGEN, INC., priority 2018, published 2021)

Tests used:
EMT-6 cancer cells = assay: Anti-tumor activity in EMT-6 syngeneic mouse tumor model; assay type: in vivo; details: 80 mpk
Protocol: This example describes in vivo studies that evaluated the anti-cancer efficacy of ARI-158 and ARI-160 in syngeneic mouse tumor models. Mice implanted subcutaneously with EMT-6 cancer cells were treated with ARI-158 and ARI-160, or vehicle controls, as described below.
A monolayer culture of tumor cells was maintained in vitro in DMEM or RPMI1640 medium supplemented with 10% fetal bovine serum at 37° C. in an atmosphere of 5% CO2. Cells in exponential growth phase were harvested and quantitated by cell counter before tumor inoculation.
EMT-6 syngeneic mouse tumor models were generated by inoculating female BALB/C 6 mice with EMT-6 cancer cells at their right lower flank.
Each mouse was inoculated subcutaneously with tumor cells in 0.1 mL of PBS. Treatments were started when the mean tumor size reached approximately 80-120 mm^3 (around 100 mm^3). The administration of the test compounds and the animal number in each study group are shown in the study design. The date of tumor cell inoculation was denoted as day 0.
ARI-158 and ARI-160 were dissolved in DMSO at the final concentration of 26.7 mg/ml and stored at room temperature.
Randomization of animals was started when the mean tumor size reached approximately 90 mm^3 to form the mouse study groups. The randomization was performed based on “Matched distribution” method using the multi-task method (StudyDirector™ software, version 3.1.399.19)/randomized block design. […]
Tumor volumes were measured twice per week in two dimensions using a caliper, and the volume was expressed in mm^3 using the formula: […]
where V is tumor volume, L is tumor length (the longest tumor dimension) and W is tumor width (the longest tumor dimension perpendicular to L). Dosing as well as tumor and body weight measurements was conducted in a Laminar Flow Cabinet. The body weights and tumor volumes were measured by using StudyDirector™ software (version 3.1.399.19).
Tumor growth inhibition percentage (TGI %) is an indicator for antitumor activity of a drug compound, and expressed as: […]
where T and C are the mean tumor volume (or weight) of the treated and control groups, respectively, on a given day. Statistical analysis of the difference in mean tumor volume (MTV) among the groups was conducted using the data collected on the day when the MTV of the vehicle group reached the humane endpoints, so that TGI could be derived for all or most mice enrolled in the study.

[1] = In vivo pharmacokinetic study in dogs, oral dose of ARI-158; design: species or system male beagle dogs; details: for Plasma Concentration / AUC(0-inf) / AUC(0-t) / Cmax / Tmax / half-life / concentration at 0.083 h / concentration at 0.25 h / concentration at 0.5 h / concentration at 1 h / concentration at 2 h / concentration at 4 h / concentration at 6 h / concentration at 8 h: dogs, 10 mg/kg oral dose of ARI-158; for AUC(0-inf) / AUC(0-t) / Cmax / Tmax / half-life / concentration at 0.083 h / concentration at 0.25 h / concentration at 0.5 h / concentration at 1 h / concentration at 2 h / concentration at 4 h / concentration at 6 h / concentration at 8 h: male, beagle, dog, plasma, po, 10 mg/kg
Protocol: This example describes pharmacokinetic (PK) studies of ARI-158 and ARI-160 in dogs and rats, respectively. In the present studies, the test compounds were given to groups of male beagle dogs and rats (N=3 in each group) intravenously (IV) at 2 mg/kg or orally (PO) at 10 mg/kg. IV doses were formulated in DMSO, while PO doses were formulated in a 50/50 mixture of PEG400 and Tween 80. Blood samples were collected at pre-dose and over a period of 24 hours post-dose. Plasma concentrations of the indolo-phosphoramidate compounds were determined by HPLC.

For CCC(=O)c1csc(C(=O)c2cn(P(=O)([O-])[O-])c3cc(F)ccc23)n1.[Na+].[Na+] [ARI-158], the “anti-tumor efficacy (TGI) comparison” value (EMT-6 cancer cells) was “better efficacy than ARI-160”, the TGI (EMT-6 cancer cells; study day 6) was −0.01% and the TGI (EMT-6 cancer cells; study day 10) was 2.92%. For the same compound, the TGI (EMT-6 cancer cells; study day 13) was −1.75%, the TGI (EMT-6 cancer cells; study day 17) was 17.21% and the TGI (EMT-6 cancer cells; study day 20) was 38.27%. The TGI (EMT-6 cancer cells; study day 24) was 44.41%, the TGI (EMT-6 cancer cells; study day 27) was 42.16% and the TGI (EMT-6 cancer cells; study day 31) was 39.97%. For the same compound, the “Plasma Concentration” value ([1]; time 0 h, Dog 10) was “BLQ”, the “Plasma Concentration” value ([1]; time 0 h, Dog 11) was “BLQ” and the “Plasma Concentration” value ([1]; time 0 h, Dog 12) was “BLQ”. The “Plasma Concentration” value ([1]; time 8 h, Dog 11) was “BLQ”, the “Plasma Concentration” value ([1]; time 24 h, Dog 10) was “BLQ” and the “Plasma Concentration” value ([1]; time 24 h, Dog 11) was “BLQ”. The “Plasma Concentration” value ([1]; time 24 h, Dog 12) was “BLQ”, the AUC(0-inf) ([1]; Dog 10) was 1020 ng·h/mL and the AUC(0-t) ([1]; Dog 10) was 1020 ng·h/mL. It also gave a Cmax ([1]; Dog 10) of 786 ng/mL, a Tmax ([1]; Dog 10) of 30 min and a half-life ([1]; Dog 10) of 82.2 min. For the same compound, the AUC(0-inf) ([1]; Dog 11) was 677 ng·h/mL, the AUC(0-t) ([1]; Dog 11) was 675 ng·h/mL and the Cmax ([1]; Dog 11) was 561 ng/mL. The Tmax ([1]; Dog 11) was 30 min, the half-life ([1]; Dog 11) was 39.2 min and the AUC(0-inf) ([1]; Dog 12) was 676 ng·h/mL. The AUC(0-t) ([1]; Dog 12) was 669 ng·h/mL, the Cmax ([1]; Dog 12) was 275 ng/mL and the Tmax ([1]; Dog 12) was 60 min. It also gave a half-life ([1]; Dog 12) of 61.2 min, an AUC(0-inf) ([1]; Mean) of 791 ng·h/mL and an AUC(0-t) ([1]; Mean) of 787 ng·h/mL. It also gave a Cmax ([1]; Mean) of 541 ng/mL, a Tmax ([1]; Mean) of 40 min and a half-life ([1]; Mean) of 60.6 min. It also gave a concentration at 0.083 h ([1]; Dog 10) of 153 ng/mL, a concentration at 0.083 h ([1]; Dog 11) of 149 ng/mL and a concentration at 0.083 h ([1]; Dog 12) of 14.3 ng/mL. The concentration at 0.083 h ([1]; Mean) was 105 ng/mL, the concentration at 0.25 h ([1]; Dog 10) was 438 ng/mL and the concentration at 0.25 h ([1]; Dog 11) was 414 ng/mL. For the same compound, the concentration at 0.25 h ([1]; Dog 12) was 87.3 ng/mL, the concentration at 0.25 h ([1]; Mean) was 313 ng/mL and the concentration at 0.5 h ([1]; Dog 10) was 786 ng/mL. For the same compound, the concentration at 0.5 h ([1]; Dog 11) was 561 ng/mL, the concentration at 0.5 h ([1]; Dog 12) was 178 ng/mL and the concentration at 0.5 h ([1]; Mean) was 508 ng/mL. It also gave a concentration at 1 h ([1]; Dog 10) of 677 ng/mL, a concentration at 1 h ([1]; Dog 11) of 311 ng/mL and a concentration at 1 h ([1]; Dog 12) of 275 ng/mL. For the same compound, the concentration at 1 h ([1]; Mean) was 421 ng/mL, the concentration at 2 h ([1]; Dog 10) was 128 ng/mL and the concentration at 2 h ([1]; Dog 11) was 102 ng/mL. For the same compound, the concentration at 2 h ([1]; Dog 12) was 158 ng/mL, the concentration at 2 h ([1]; Mean) was 129 ng/mL and the concentration at 4 h ([1]; Dog 10) was 11.2 ng/mL. For the same compound, the concentration at 4 h ([1]; Dog 11) was 14.4 ng/mL, the concentration at 4 h ([1]; Dog 12) was 69.8 ng/mL and the concentration at 4 h ([1]; Mean) was 31.8 ng/mL. The concentration at 6 h ([1]; Dog 10) was 3.28 ng/mL, the concentration at 6 h ([1]; Dog 11) was 1.47 ng/mL and the concentration at 6 h ([1]; Dog 12) was 14.1 ng/mL. It also gave a concentration at 6 h ([1]; Mean) of 6.28 ng/mL, a concentration at 8 h ([1]; time 8 h, Dog 10) of 1.47 ng/mL and a concentration at 8 h ([1]; time 8 h, Dog 12) of 4.62 ng/mL. For the same compound, the concentration at 8 h ([1]; time 8 h, Mean) was 3.05 ng/mL and the absorption ([1]; oral administration in dogs, compared with ARI-143) was “absorbed much more efficiently than ARI-143”.
